Measurements reported in paper PMC9736855, “Discovery of 3-Amino-1H-pyrazole-Based Kinase Inhibitors to Illuminate the Understudied PCTAIRE Family” (International Journal of Molecular Sciences, 2022).
“Also recorded” adds a separate entry of the source.

Assays:
BMPR2 = target: T1, BMPR2 (Homo sapiens, UniProt Q13873); assay: DSF; format: binding
T1 construct: purchased in-house DSF panel (SGC Frankfurt)
T1 sequence (Q13873 27-1038): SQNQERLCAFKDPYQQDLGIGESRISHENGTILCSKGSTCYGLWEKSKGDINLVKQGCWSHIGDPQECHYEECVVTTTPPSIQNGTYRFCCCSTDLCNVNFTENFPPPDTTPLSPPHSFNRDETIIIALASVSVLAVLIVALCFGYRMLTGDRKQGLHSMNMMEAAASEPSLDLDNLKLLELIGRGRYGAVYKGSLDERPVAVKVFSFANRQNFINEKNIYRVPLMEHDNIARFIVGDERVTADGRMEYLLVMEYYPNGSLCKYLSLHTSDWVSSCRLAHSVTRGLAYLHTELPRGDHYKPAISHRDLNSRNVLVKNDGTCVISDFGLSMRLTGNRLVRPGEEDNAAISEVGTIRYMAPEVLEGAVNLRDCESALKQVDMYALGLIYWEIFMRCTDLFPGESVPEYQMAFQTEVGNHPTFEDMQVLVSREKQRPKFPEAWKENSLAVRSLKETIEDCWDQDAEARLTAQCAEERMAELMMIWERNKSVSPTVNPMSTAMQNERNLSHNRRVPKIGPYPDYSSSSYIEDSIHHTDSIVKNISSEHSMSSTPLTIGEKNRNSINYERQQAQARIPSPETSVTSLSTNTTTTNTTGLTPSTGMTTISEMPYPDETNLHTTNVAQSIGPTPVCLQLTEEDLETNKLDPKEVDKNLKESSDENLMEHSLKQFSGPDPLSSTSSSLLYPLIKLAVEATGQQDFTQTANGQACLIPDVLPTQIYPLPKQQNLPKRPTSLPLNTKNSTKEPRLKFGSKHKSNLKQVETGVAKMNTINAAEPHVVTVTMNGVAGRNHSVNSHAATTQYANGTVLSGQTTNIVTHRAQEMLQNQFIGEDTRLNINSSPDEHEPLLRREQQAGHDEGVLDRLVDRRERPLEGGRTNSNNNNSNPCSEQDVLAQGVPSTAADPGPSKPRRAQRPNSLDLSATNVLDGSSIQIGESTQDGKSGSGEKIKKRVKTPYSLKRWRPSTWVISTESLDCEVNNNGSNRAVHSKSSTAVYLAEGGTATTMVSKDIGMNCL
Procedure: (§2) Recombinant protein kinase domains with a concentration of 2 μM were mixed with a 10 μM compound solution in DMSO, 20 mM HEPES, pH 7.5, and 500 mM NaCl. SYPRO Orange (5000×, Invitrogen) was added as a fluorescence probe (1 µl per mL). Subsequently, temperature-dependent protein unfolding profiles were measured, using the QuantStudio™ 5 realtime PCR machine (Thermo Fisher, Waltham, MA, USA). […] The temperature was raised with a step rate of 3 °C per minute. Data points were analyzed with the internal software (Thermal Shift SoftwareTM Version 1.4, Thermo Fisher) using the Boltzmann equation to determine the inflection point of the transition curve [56]. Differences in melting temperature are given as ΔTm values in °C. Measurements were performed in duplicates.

CAMK2B = target: T2, CAMK2B (Homo sapiens, UniProt Q13554); assay: DSF; format: binding
T2 construct: purchased in-house DSF panel (SGC Frankfurt)
Procedure: as §2

CDK2 = target: T3, CDK2 (Homo sapiens, UniProt P24941); assay: DSF; format: binding; details: 10 μM compound
T3 construct: purchased in-house DSF panel (SGC Frankfurt)
Procedure, shortened: (§1)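 Differential scanning fluorimetry follows unfolding of the protein through fluorescence of a dye that depends on folding state. The value is ΔTm, the melting-temperature shift between compound-free and compound-bound protein. Duplicate measurements.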

CDK16 = target: T4, CDK16 (Homo sapiens, UniProt Q00536); assay: DSF; format: binding; details: 10 μM compound
T4 construct: purchased in-house DSF panel (SGC Frankfurt)
Procedure, shortened: as §1

HCT116-FUCCI cells = assay: FUCCI cell cycle assay and viability assessment; format: cell-based; details: for effect on the cell cycle (FUCCI): 1, 5, 10 µM (milciclib 1, 10 µM); for effect on the cell cycle (FUCCI) / pyknosed nuclei: 24 h; for effect on cell count: 1, 5, 10 µM vs DMSO 0.1 %; for cells compared to the control: after 72 h, vs DMSO 0.1 %; for pyknosed nuclei: average
Procedure: This technology enables the detection of cell cycle states (G1, G2/M, or S phase) on a single cell level. Additionally, a viability assessment, as described by Tjaden et. al., was performed using Hoechst33342 as a nuclear marker. […] At 10 µM of the same compound, the pyknosed nuclei rate was even higher, on average 45% (Figure 9C). An increase in cells including a pyknosed nucleus indicate apoptotic cell death, due to typical morphological changes like DNA condensation. […] Milciclib is a published CDK2 inhibitor and was used as a reference compound [55]. […] At later time points, the G2/M phase arrest was no longer detectable (Table S7). This can be explained due to the increasing amount of apoptotic cells.
To validate the influence of the compounds on the cell cycle, a florescent ubiquitination-based cell cycle indicator (FUCCI) assay was performed as described previously. In Brief, HCT116-FUCCI cells, stably expressing the FUCCI system, introduced by the Sleeping Beauty transposon system, were seeded at a density of 1250 cells per well in a 384 well plate (Cell culture microplate, PS, f-bottom, µClear®, 781091, Greiner, Frickenhausen, Germany) in culture medium (50 µL per well) and stained additionally with 60 nM Hoechst33342 (Thermo Scientific). Fluorescence and cellular shape were measured before and after compound treatment for 72 h every 12 h using the CQ1 high-content confocal microscope (Yokogawa, Tokyo, Japan). Compounds were added directly to the cells at three different concentrations (1 µM, 5 µM and 10 µM). The following parameters were used for image acquisition: Ex 405 nm/Em 447/60 nm, 500ms, 50%; Ex 561 nm/Em 617/73 nm, 100 ms, 40%; Ex 488/Em 525/50 nm, 50 ms, 40%; Ex 640 nm/Em 685/40, 50 ms, 20 %; bright field, 300ms, 100% transmission, one centered field per well, 7 z stacks per well with 55 µm spacing. Analysis of images was performed using the CellPathfinder software (Yokogawa). The cell count was normalized against the cell count of cells treated with 0.1% DMSO. All normal gated cells were further classified in cells containing healthy, fragmented or pyknosed nuclei. […] Error bars show SEM of biological duplicates. All data can be found in Table S7.

T4 sequence (Q00536 163-478): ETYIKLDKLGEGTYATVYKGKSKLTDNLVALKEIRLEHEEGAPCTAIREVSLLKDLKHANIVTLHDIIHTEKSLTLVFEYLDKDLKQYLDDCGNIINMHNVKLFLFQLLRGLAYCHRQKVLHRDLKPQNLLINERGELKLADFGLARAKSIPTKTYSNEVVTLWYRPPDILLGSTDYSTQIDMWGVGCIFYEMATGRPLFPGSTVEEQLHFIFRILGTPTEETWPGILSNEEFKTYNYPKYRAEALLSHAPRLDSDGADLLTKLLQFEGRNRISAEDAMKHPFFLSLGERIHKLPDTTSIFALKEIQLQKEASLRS
T2 sequence (Q13554 11-303): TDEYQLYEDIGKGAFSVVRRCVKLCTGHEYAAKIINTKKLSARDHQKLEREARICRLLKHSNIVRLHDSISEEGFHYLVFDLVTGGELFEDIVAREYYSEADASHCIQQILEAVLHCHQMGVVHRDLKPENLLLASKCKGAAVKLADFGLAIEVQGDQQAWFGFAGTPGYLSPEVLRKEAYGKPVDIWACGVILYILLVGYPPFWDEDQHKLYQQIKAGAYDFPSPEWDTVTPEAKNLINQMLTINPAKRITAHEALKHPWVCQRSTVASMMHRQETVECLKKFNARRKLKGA

SMILES | ΔTm BMPR2 (BMPR2) [°C] | ΔTm CAMK2B (CAMK2B) [°C] | ΔTm at 10 µM (CDK2) [°C] | ΔTm at 10 µM (CDK16) [°C] | effect on the cell cycle (FUCCI) (HCT116-FUCCI cells) | effect on cell count (HCT116-FUCCI cells) | cells compared to the control (HCT116-FUCCI cells) | pyknosed nuclei (HCT116-FUCCI cells; 1 µM) [%] | pyknosed nuclei (HCT116-FUCCI cells; 10 µM) [%]
COC(=O)c1cc(Nc2ccnc(NCc3ccc(NC(=O)OC(C)(C)C)cc3)n2)[nH]n1 [21i, methyl 5-((2-((4-((tert-butoxycarbonyl)amino)benzyl)amino)pyrimidin-4-yl)amino)-1H-pyrazole-3-carboxylate] | 1.1 | 0.6 | 3.3 | 6.5 | accumulation of cells in G2/M phases | decreased the cell count | less than 50% | – | –
CC(C)(C)OC(=O)Nc1ccc(CNc2nccc(Nc3cc(C(=O)OC(C)(C)C)[nH]n3)n2)cc1 [43d, tert-butyl 3-((2-((4-((tert-butoxycarbonyl)amino)benzyl)amino)pyrimidin-4-yl)amino)-1H-pyrazole-5-carboxylate] | 1.4 | -0.5 | 3.2 | 9.2 | G2/M phase cell cycle arrest; also recorded: accumulation of cells in G2/M phases | decreased the cell count in a dose-dependent manner | less than 50% | 10 | 45
COC(=O)c1cc(Nc2ccnc(NCCOCCNC(=O)OC(C)(C)C)n2)[nH]n1 [21d, methyl 5-((2-((2-(2-((tert-butoxycarbonyl)amino)ethoxy)ethyl)amino)pyrimidin-4-yl)amino)-1H-pyrazole-3-carboxylate] | 0.7 | 0.2 | 1.9 | 4.3 | – | – | – | – | –
CC(C)OC(=O)c1cc(Nc2ccnc(NCc3ccc(NC(=O)OC(C)(C)C)cc3)n2)n[nH]1 [42d, isopropyl 3-((2-((4-((tert-butoxycarbonyl)amino)benzyl)amino)pyrimidin-4-yl)amino)-1H-pyrazole-5-carboxylate] | 0.9 | -1.2 | 3 | 8.4 | accumulation of cells in G2/M phases | – | – | – | –
N#CCc1ccc(Nc2nccc(Nc3cc(C4CC4)[nH]n3)n2)cc1 [compound 1, reference compound] | 9.2 | 4.4 | 15.2 | 10.3 | no effect on the cell cycle | – | – | – | –
